# Biological target: Glucagon-like peptide 1 receptor (Homo sapiens, UniProt P43220)
# Assay: Agonist activity at human GLP-1R expressed in CHO-K1 cells assessed as increase in cAMP level incubated for 30 mins
# Format: functional, cell-based
# Glucagon-like peptide 1 receptor, sequence (P43220 whole entry): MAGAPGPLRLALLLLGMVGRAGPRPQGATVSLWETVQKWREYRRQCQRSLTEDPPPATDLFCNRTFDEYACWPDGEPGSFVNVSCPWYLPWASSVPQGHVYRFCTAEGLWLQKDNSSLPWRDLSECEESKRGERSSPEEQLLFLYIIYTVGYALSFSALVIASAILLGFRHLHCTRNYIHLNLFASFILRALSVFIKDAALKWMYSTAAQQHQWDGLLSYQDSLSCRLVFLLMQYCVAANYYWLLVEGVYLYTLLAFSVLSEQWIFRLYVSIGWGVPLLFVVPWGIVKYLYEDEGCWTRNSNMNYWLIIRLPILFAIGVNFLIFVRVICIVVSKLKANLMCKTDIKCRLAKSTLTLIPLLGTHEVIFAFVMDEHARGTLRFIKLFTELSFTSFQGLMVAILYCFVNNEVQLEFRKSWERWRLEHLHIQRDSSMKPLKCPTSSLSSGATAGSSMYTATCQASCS
smiles,measurement,value
CC[C@H](C)[C@@H]1NC(=O)[C@H](CCC(=O)O)NC(=O)[C@@H]2CCCN2C(=O)[C@H](Cc2cnc[nH]2)NC(=O)[C@H](CC(=O)O)NC(=O)[C@H](Cc2ccc(O)cc2)NC(=O)[C@H](CC(N)=O)NC(=O)[C@@H]2CSSC[C@@H]3NC(=O)CNC(=O)CNC(=O)CNC(=O)[C@H](C)NC(=O)[C@H](C)NC(=O)CNC(=O)CNC(=O)[C@H](CSSC[C@H](NC3=O)C(=O)N[C@@H](CO)C(=O)N[C@@H](CC(=O)O)C(=O)N3CCC[C@H]3C(=O)N[C@@H](CCCNC(=N)N)C(=O)N2)NC1=O,EC50,0.14 nM

# — ChEMBL document CHEMBL3632477 (2015)
